Where a SMILES comes first, the peptide text is derived from it. [ ]: non-standard residue; d: D form. The star is where a group is joined. Orn(α-tetramethylguanidino) = CN(C)C(=N[C@@H](CCCN)C(=O)*)N(C)C; Pro(trans-4-F) = O=C(O)[C@@H]1C[C@@H](F)CN1; Pro(cis-4-F) = O=C(O)[C@@H]1C[C@H](F)CN1
Assays:
[1] = test system: E. coli RN31; assay: Growth inhibition of E. coli RN31 during 90 min exponential growth phase; format: cell-based, Escherichia coli; conditions: for reduction of bacterial growth vs untreated control: E. coli RN31, 33% TSB, peptide 8 µg/mL, OD600, two biological replicates (n = 2)
Procedure: The following steps were performed on ice. Cells were harvested by centrifugation (4000× g, 4 °C, 25 min), washed with TICO buffer (20 mmol/L Hepes-KOH, pH 7.6, 6 mmol/L MgAc2, 30 mmol/L KAc), centrifuged (4000× g, 25 min, 4 °C), and stored at −80 °C. The cell pellet was suspended in TICO buffer (500 µL) and mixed with silica beads (zirconium glass pellets, 100 µm diameter; Carl Roth; Karlsruhe, Germany) to lyse the cells on a FastPrep-24^TM 5G (MP Biomedicals, Solon, OH, USA) using three disruption cycles (30 s, 6.0 m/s) interrupted by 1 min of incubation on ice after each cycle. Cell debris was removed by centrifugation (5000× g, 4 °C, 5 min), the supernatant was transferred to a new reaction tube, centrifuged (20,000× g, 4 °C, 20 min), the absorbance was recorded at 260 nm on a NanoPhotometer® NP80, and the sample was stored at −80 °C. […]

[2] = test system: in vitro expression of sfGFP in the presence of RF1; assay: In vitro transcription-translation (iTT) assay of sfGFP in the presence of RF1; format: biochemical; conditions: peptide 5 µmol/L, RF1, 37 °C, 2 h, fluorescence, normalized to absence of PrAMPs, n = 3
Procedure: The sfGFP expression analysis relied on the NEB PureExpress Delta RF123 Kit (New England Biolabs, Frankfurt, Germany). The DNA template encoding sfGFP with a UAG stop codon was amplified from the pY71sfGFP vector by PCR using the primers sfGFP fwd ([…]) and sfGFP rev ([…]). The release factor RF1 of the kit was diluted 50-fold (v/v) in 1× Pure System Buffer (PSB, 1 mol/L magnesium acetate, 0.5 mol/L K3PO4 (pH 7.3), 1 mol/L potassium glutamate, 1 mol/L NH4Cl, 0.5 mol/L CaCl2, 1 mol/L spermidine, 0.1 mol/L putrescine, 0.1 mol/L DTT). sfGFP expression was performed in a freshly prepared mixture of kit solution A (2 µL), kit solution B (1.5 µL), 50-fold diluted RF1 (0.5 µL), sfGFP template (0.1325 pmol, 35 ng) or water as control (0.25 µL), PSB (0.25 µL), and a PrAMP (50 or 0 µmol/L) dissolved in water (0.5 µL). The reaction mixture was transferred to a black 384-well plate (flat bottom, PS, 784900, Greiner Bio-One GmbH), covered with a lid, and incubated (37 °C, 2 h) in a microplate reader (Gemini EM, Molecular Devices, San Jose, CA, USA). Fluorescence was recorded every 10 min (λex = 485 nm, λem = 535 nm).

[3] = test system: 50S subunit assembly / 70S ribosome in E. coli RN31; assay: Ribosome profile analysis (RPA), sucrose gradient of E. coli RN31 lysate; format: cell-based, Escherichia coli; conditions: 90 min; for RPA [pre-50S formation]: E. coli RN31, 33% TSB, peptide 8 µg/mL, 5–25% sucrose gradient, n = 2 (Api137 n = 7)
Procedure: E. coli RN31 was grown in 33% TSB (37 °C, 200 rpm) from a starting OD600 of 0.05 to an OD600 of 0.2, measured on a NanoPhotometer® (NP80; Implen; Westlake Village, CA, USA), and divided into subcultures that were inoculated with a peptide ([…]) before being cultured for 90 min (37 °C, 200 rpm). The following steps were performed on ice. Cells were harvested by centrifugation (4000× g, 4 °C, 25 min), washed with TICO buffer (20 mmol/L Hepes-KOH, pH 7.6, 6 mmol/L MgAc2, 30 mmol/L KAc), centrifuged (4000× g, 25 min, 4 °C), and stored at −80 °C. The cell pellet was suspended in TICO buffer (500 µL) and mixed with silica beads (zirconium glass pellets, 100 µm diameter; Carl Roth; Karlsruhe, Germany) to lyse the cells on a FastPrep-24^TM 5G (MP Biomedicals, Solon, OH, USA) using three disruption cycles (30 s, 6.0 m/s) interrupted by 1 min of incubation on ice after each cycle. Cell debris was removed by centrifugation (5000× g, 4 °C, 5 min), the supernatant was transferred to a new reaction tube, centrifuged (20,000× g, 4 °C, 20 min), the absorbance was recorded at 260 nm on a NanoPhotometer® NP80, and the sample was stored at −80 °C.
A 5% (w/v) sucrose solution (6.5 mL) in TICO buffer containing 2-mercaptoethanol (4 mmol/L) was poured into an open-top centrifuge tube (13.2 mL, 14 × 89 mm, Beckman Coulter) and bottomed with a 25% (w/v) sucrose solution (6.5 mL) in TICO buffer containing 2-mercaptoethanol (4 mmol/L) using a cannula. The tube was sealed with parafilm and placed horizontally at 4 °C for 3 h and vertically at 4 °C for 30 min. A portion of the upper layer (550 µL) was replaced by lysate (500 µL, A260 = 30) and centrifuged using a swing-out rotor (SW 41 Ti, 52,500× g, 4 °C, 19 h) without a brake. The contents were transferred from bottom-up to obtain equal volumes in all wells of a black 96-well plate with a flat bottom (96 Well PP black Greiner Bio-One GmbH, Frickenhausen, Germany) using the Äkta Purifier 10 system, and absorbance was recorded at a wavelength of 254 nm. Fluorescence was measured in the plate using the PARADIGM at excitation (λex) and emission (λem) wavelengths of 485 nm and 535 nm for eGFP and 585 nm and 635 nm, respectively, for mCherry and normalized to the 70S ribosome peak (set to 100%).

Row | Compound | reduction of bacterial growth vs untreated control ([1]; 90 min) | Residual iTT (sfGFP expression relative to no PrAMP) [2] | RPA [pre-50S formation] [3] | 70S peak (area) relative to untreated control ([3]; E. coli RN31, peptide 8 µg/mL, sucrose gradient profile) | Residual iTT (sfGFP expression relative to no PrAMP) ([2]; listed as 4S-Fpr16) | Residual iTT (sfGFP expression relative to no PrAMP) ([2]; listed as Pro16 4S-Fpr (cis)) | OD600 of treated culture after 90 min ([1]; E. coli RN31, peptide 8 µg/mL, 90 min, initial OD600 = 0.226 ± 0.006 at 0 min) | cell count relative to the initial cell count ([1]; E. coli RN31, peptide 8 µg/mL, 90 min vs 0 min (OD600)) | Residual iTT (sfGFP expression relative to no PrAMP) ([2]; listed as 4R-Fpr16) | Residual iTT (sfGFP expression relative to no PrAMP) ([2]; listed as Pro16 4R-Fpr (trans)) | ribosomal profile, pre-50S peak ([3]; E. coli RN31, adjusted peptide concentration 4 µg/mL)
1 | CC[C@H](C)[C@H](NC(=O)[C@H](Cc1ccc(O)cc1)NC(=O)[C@@H](NC(=O)[C@@H]1CCCN1C(=O)[C@H](CCCNC(=N)N)NC(=O)[C@H](CC(N)=O)NC(=O)[C@H](CC(N)=O)NC(=O)[C@H](CCCN)N=C(N(C)C)N(C)C)C(C)C)C(=O)N1C[C@H](F)C[C@H]1C(=O)N[C@@H](CCCNC(=N)N)C(=O)N1CCC[C@H]1C(=O)N[C@@H](CCCNC(=N)N)C(=O)N1CCC[C@H]1C(=O)N1CCC[C@H]1C(=O)N[C@@H](Cc1c[nH]cn1)C(=O)N1CCC[C@H]1C(=O)N[C@@H](CCCNC(=N)N)C(=O)N[C@@H](CC(C)C)C(=O)O [Api846] ({Orn(α-tetramethylguanidino)}-NNRPVYI[Pro(trans-4-F)]RPRPPHPRL-OH) | 34% | 33 ± 3.5% | no | ~ 45% | – | – | – | – | – | – | –
2 | CC[C@H](C)[C@H](NC(=O)[C@H](Cc1ccc(O)cc1)NC(=O)[C@@H](NC(=O)[C@@H]1CCCN1C(=O)[C@H](CCCNC(=N)N)NC(=O)[C@H](CC(N)=O)NC(=O)[C@H](CC(N)=O)NC(=O)[C@H](CCCN)N=C(N(C)C)N(C)C)C(C)C)C(=O)N1CCC[C@H]1C(=O)N[C@@H](CCCNC(=N)N)C(=O)N1CCC[C@H]1C(=O)N[C@@H](CCCNC(=N)N)C(=O)N1CCC[C@H]1C(=O)N1CCC[C@H]1C(=O)N[C@@H](Cc1c[nH]cn1)C(=O)N1C[C@@H](F)C[C@H]1C(=O)N[C@@H](CCCNC(=N)N)C(=O)N[C@@H](CC(C)C)C(=O)O [Api849] ({Orn(α-tetramethylguanidino)}-NNRPVYIPRPRPPH[Pro(cis-4-F)]RL-OH) | 16% | – | no | – | 63% | 63 ± 8.9% | – | – | – | – | –
3 | CC[C@H](C)[C@H](NC(=O)[C@H](Cc1ccc(O)cc1)NC(=O)[C@@H](NC(=O)[C@@H]1CCCN1C(=O)[C@H](CCCNC(=N)N)NC(=O)[C@H](CC(N)=O)NC(=O)[C@H](CC(N)=O)NC(=O)[C@H](CCCN)N=C(N(C)C)N(C)C)C(C)C)C(=O)N1CCC[C@H]1C(=O)N[C@@H](CCCNC(=N)N)C(=O)N1C[C@H](F)C[C@H]1C(=O)N[C@@H](CCCNC(=N)N)C(=O)N1CCC[C@H]1C(=O)N1CCC[C@H]1C(=O)N[C@@H](Cc1c[nH]cn1)C(=O)N1CCC[C@H]1C(=O)N[C@@H](CCCNC(=N)N)C(=O)N[C@@H](CC(C)C)C(=O)O [Api842] ({Orn(α-tetramethylguanidino)}-NNRPVYIPR[Pro(trans-4-F)]RPPHPRL-OH) | 49% | 31 ± 0.7% | reduced | – | – | – | – | – | – | – | –
4 | CC[C@H](C)[C@H](NC(=O)[C@H](Cc1ccc(O)cc1)NC(=O)[C@@H](NC(=O)[C@@H]1CCCN1C(=O)[C@H](CCCNC(=N)N)NC(=O)[C@H](CC(N)=O)NC(=O)[C@H](CC(N)=O)NC(=O)[C@H](CCCN)N=C(N(C)C)N(C)C)C(C)C)C(=O)N1CCC[C@H]1C(=O)N[C@@H](CCCNC(=N)N)C(=O)N1CCC[C@H]1C(=O)N[C@@H](CCCNC(=N)N)C(=O)N1CCC[C@H]1C(=O)N1CCC[C@H]1C(=O)N[C@@H](Cc1c[nH]cn1)C(=O)N1C[C@H](F)C[C@H]1C(=O)N[C@@H](CCCNC(=N)N)C(=O)N[C@@H](CC(C)C)C(=O)O [Api850] ({Orn(α-tetramethylguanidino)}-NNRPVYIPRPRPPH[Pro(trans-4-F)]RL-OH) | 84% | – | yes | – | – | – | 0.333 ± 0.002 | ~ 140% | 28% | 28 ± 0.7% | reduced the area of the pre-50S peak
5 | CC[C@H](C)[C@H](NC(=O)[C@H](Cc1ccc(O)cc1)NC(=O)[C@@H](NC(=O)[C@@H]1CCCN1C(=O)[C@H](CCCNC(=N)N)NC(=O)[C@H](CC(N)=O)NC(=O)[C@H](CC(N)=O)NC(=O)[C@H](CCCN)N=C(N(C)C)N(C)C)C(C)C)C(=O)N1CCC[C@H]1C(=O)N[C@@H](CCCNC(=N)N)C(=O)N1C[C@@H](F)C[C@H]1C(=O)N[C@@H](CCCNC(=N)N)C(=O)N1CCC[C@H]1C(=O)N1CCC[C@H]1C(=O)N[C@@H](Cc1c[nH]cn1)C(=O)N1CCC[C@H]1C(=O)N[C@@H](CCCNC(=N)N)C(=O)N[C@@H](CC(C)C)C(=O)O [Api841] ({Orn(α-tetramethylguanidino)}-NNRPVYIPR[Pro(cis-4-F)]RPPHPRL-OH) | 65% | 32 ± 0.9% | yes | – | – | – | – | – | – | – | –
6 | CC[C@H](C)[C@H](NC(=O)[C@H](Cc1ccc(O)cc1)NC(=O)[C@@H](NC(=O)[C@@H]1CCCN1C(=O)[C@H](CCCNC(=N)N)NC(=O)[C@H](CC(N)=O)NC(=O)[C@H](CC(N)=O)NC(=O)[C@H](CCCN)N=C(N(C)C)N(C)C)C(C)C)C(=O)N1C[C@@H](F)C[C@H]1C(=O)N[C@@H](CCCNC(=N)N)C(=O)N1CCC[C@H]1C(=O)N[C@@H](CCCNC(=N)N)C(=O)N1CCC[C@H]1C(=O)N1CCC[C@H]1C(=O)N[C@@H](Cc1c[nH]cn1)C(=O)N1CCC[C@H]1C(=O)N[C@@H](CCCNC(=N)N)C(=O)N[C@@H](CC(C)C)C(=O)O [Api845] ({Orn(α-tetramethylguanidino)}-NNRPVYI[Pro(cis-4-F)]RPRPPHPRL-OH) | 62% | 26 ± 5.7% | yes | – | – | – | – | – | – | – | –

Source: publication PMC12189828, “Substitution of Proline Residues by 4-Fluoro-L-Proline Affects the Mechanism of the Proline-Rich Antimicrobial Peptide Api137” (Antibiotics, 2025)
